Source: patent US7820202B2, “Extended release particle dispersion” (Laboratorios Farmaceuticos Rovi S.A., priority 2000, dated 2010)

Tests used:
[1] = cited from earlier work
[2] = Encapsulation efficiency of drug in PLGA extended release particles; assay type: physicochemical; conditions: poly(d,l-lactide-co-glycolide) particles formed by mixing two liquid preproducts (ethyl acetate polymer solution / aqueous phase)
Protocol: A solution of poly(d,l-lactide-co-glycolide) (75/25, RG752 or 50/50, RG 502H or 503H from Böhringer Ingelheim) (40% w/w) in ethyl acetate (syringe 1) (200μl) (first liquid preproduct) is mixed with an aqueous phase (water for injection, Tween 80- or alternatively Pluronic F 68-, Na carboxy methylcellulose) (syringe 2) (2ml) (second liquid preproduct) by connecting the two syringes with a connector or by screwing the two syringes together and by pushing the plungers forward and backward (25 mixing cycles). The extended release particles are thereby formed, which are dispersed in the aqueous phase and which are ready to be injected.
(§1) Like example 1. In addition, a water-insoluble salt of leuprolide, leuprolide oleate, was formed from aqueous leuprolide acetate and sodium oleate solutions. The insoluble salt was separated from the aqueous phase, dried and then added to the poly(d,l-lactide-co-glycolide) solution to form the first liquid preproduct, wherein the drug is dispersed and/or dissolved in the polymer solution. The first liquid preproduct is mixed with and dispersed in the second liquid preproduct.

[3] = Drug release from extended release particles in pH 7.4 phosphate buffer; assay type: physicochemical; conditions: pH 7.4 phosphate buffer (simulates body fluids); compared to the water-soluble salt, leuprolide acetate
Text: as §1

Compound	solubility in water [1]	encapsulation efficiencies [2] [%]	retardation in drug release [3]
CCOC(C)=O [ethylacetate]	approx. 10%	–	–
CC(=O)OCC(COC(C)=O)OC(C)=O [triacetin]	approx. 8%	–	–
leuprolide oleate	–	> 85	even more pronounced retardation in drug release
